According to publication PMC7029851, “Antibacterial activity of novel dual bacterial DNA type II topoisomerase inhibitors” (PLoS ONE, 2020):
Several values for one entry are separate records, joined by “and”; a condition that tells them apart may be missing. Identical values can stand only once. Counter-ions that a name gives are not always drawn. Like-named read-outs stand apart in the source and are kept apart here.

How the values were obtained:
[1] = target: T1, E. coli Topoisomerase IV (Escherichia coli, UniProt P0AFI2); assay: E. coli topoisomerase IV decatenation gel assay; assay type: biochemical
T1 construct: purchased Inspiralis (Norwich, UK)
Procedure: (§1) S. aureus and E. coli DNA gyrase supercoiling and topo IV decatenation assay kits, as well as human topoisomerase II decatenation assay kits, were provided by Inspiralis (Norwich, UK). Assays were performed according to the manufacturer’s instructions. The compounds were serially diluted (1:3 dilutions starting from a 300 μM final concentration) and assayed in a reaction mixture to obtain concentration-response curves in two different replicate experiments. The final concentration of DMSO in the assays was 1% (v/v). The reactions were terminated by the addition of 30 μl chloroform/isoamyl alcohol (26:1) and 30 μl Stop Dye (40% sucrose, 100 mM Tris HCl pH 7.5, 1 mM EDTA, 0.5 μg/ml bromophenol blue), after which the samples were loaded onto a 1.0% TAE ([…]) gel that was then run at 80 V for 2 hours. DNA bands were visualized by ethidium bromide staining the gel for 10 minutes, which was then destained for 10 minutes in water and analysed using gel documentation equipment (Syngene, Cambridge, UK). The DNA in each band was quantitated using Syngene Gene Tools software. Raw gel data (fluorescent band volumes) were converted by the software to percentages of the control (the fully supercoiled or decatenated DNA band). […] The global curve fit non-linear regression tool was used to calculate the IC50 values. The results are expressed as the average values obtained after calculating the IC50 from each replicate run.

[2] = target: T2, S. aureus DNA gyrase (Staphylococcus aureus, UniProt P20831); assay: S. aureus DNA gyrase supercoiling gel assay; assay type: biochemical
T2 construct: purchased Inspiralis (Norwich, UK)
Procedure: as §1

[3] = system: P. aeruginosa ATCC 27853; assay: MIC, broth microdilution; assay type: cell-based; settings: Pseudomonas aeruginosa, ATCC27853; P. aeruginosa ATCC 27853, ciprofloxacin-susceptible
Procedure: (§2) MICs were determined by the broth microdilution method (the agar dilution method was used only for N. gonorrhoeae) according to CLSI guidelines.

[4] = system: E. faecalis ATCC 29212; assay: MIC, broth microdilution; assay type: cell-based; settings: Enterococcus faecalis, ATCC29212; E. faecalis ATCC 29212, ciprofloxacin-susceptible
Procedure: as §2

[5] = system: E. coli ATCC 25922; assay: MIC, broth microdilution; assay type: cell-based; settings: Escherichia coli, ATCC25922; E. coli ATCC 25922, ciprofloxacin-susceptible
Procedure: as §2

[6] = system: S. pneumoniae ATCC 49619; assay: MIC, broth microdilution; assay type: cell-based; settings: Streptococcus pneumoniae, ATCC49619; S. pneumoniae ATCC 49619, ciprofloxacin-susceptible
Procedure: as §2

[7] = system: H. influenzae ATCC 49766; assay: MIC, broth microdilution; assay type: cell-based; settings: Haemophilus influenzae, ATCC49766; H. influenzae ATCC 49766, ciprofloxacin-susceptible
Procedure: as §2

[8] = system: S. aureus BAA-1720; assay: MIC, broth microdilution; assay type: cell-based; settings: Staphylococcus aureus, BAA1720; S. aureus BAA-1720, ciprofloxacin-resistant
Procedure: as §2

[9] = system: E. coli 4SI; assay: MIC, broth microdilution; assay type: cell-based; settings: Escherichia coli, ciprofloxacin-resistant
Procedure: as §2

[10] = system: K. pneumoniae ATCC 700603; assay: MIC, broth microdilution; assay type: cell-based; settings: Klebsiella pneumoniae, ATCC700603; K. pneumoniae ATCC 700603, ciprofloxacin-susceptible
Procedure: as §2

[11] = target: T3, Human Topoisomerase II (Homo sapiens, UniProt P11388); assay: Human topoisomerase II decatenation gel assay; assay type: biochemical
T3 construct: purchased Inspiralis (Norwich, UK)
Procedure: as §1

[12] = system: N. gonorrhoeae ATCC 49226; assay: MIC, agar dilution; assay type: cell-based; settings: Neisseria gonorrhoeae, ATCC49226; N. gonorrhoeae ATCC 49226, ciprofloxacin-susceptible
Procedure: as §2

[13] = system: N. gonorrhoeae WHO L; assay: MIC, agar dilution; assay type: cell-based; settings: Neisseria gonorrhoeae, ciprofloxacin-resistant
Procedure: as §2

[14] = system: N. gonorrhoeae WHO N; assay: MIC, agar dilution; assay type: cell-based; settings: Neisseria gonorrhoeae, ciprofloxacin-resistant
Procedure: as §2

[15] = system: N. gonorrhoeae ATCC 19424; assay: MIC, agar dilution; assay type: cell-based; settings: Neisseria gonorrhoeae, ATCC19424; N. gonorrhoeae ATCC 19424, ciprofloxacin-susceptible
Procedure: as §2

[16] = system: N. gonorrhoeae WHO K; assay: MIC, agar dilution; assay type: cell-based; settings: Neisseria gonorrhoeae, ciprofloxacin-resistant
Procedure: as §2

[17] = system: E. coli TolC- mutant; assay: microbe, parasite or virus in culture; assay type: cell-based; settings: Escherichia coli
Procedure: The bacterial reference strains used in this study were purchased from ATCC (American Type Culture Collection) via LGC Standards (Middlesex, UK). […] Clinical MDR isolates were provided by Aptuit, the IHMA Europa Sàrl repository (Epalinges, Switzerland) and the Statens Serum Institute (Copenhagen, Denmark).
as §2

[18] = system: E. faecalis clinical isolates (n = 12) vanA (6)/vanB (6); assay: MIC, multidrug-resistant clinical isolates; assay type: cell-based; settings: Enterococcus faecalis; for MIC: read-out: MIC range
Summary of the method: (§3)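 For N. gonorrhoeae, inhibitory concentrations came from agar dilution, while all other organisms were run in broth microdilution according to CLSI. Results summarise the isolate collection as MIC50 and MIC90 values.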

[19] = system: E. faecium clinical isolates (n = 12) vanA (6)/vanB (6); assay: MIC, multidrug-resistant clinical isolates; assay type: cell-based; settings: Enterococcus faecium; for MIC: read-out: MIC range
Summary of the method: as §3

[20] = target: T4, E. coli DNA gyrase (Escherichia coli, UniProt P0AES4); assay: E. coli DNA gyrase supercoiling gel assay; assay type: biochemical
T4 construct: purchased Inspiralis (Norwich, UK)
Procedure: as §1

[21] = target: T5, S. aureus Topoisomerase IV (Staphylococcus aureus, UniProt P0C1U9); assay: S. aureus topoisomerase IV decatenation gel assay; assay type: biochemical
T5 construct: purchased Inspiralis (Norwich, UK)
Procedure: as §1

[22] = system: N. gonorrhoeae clinical isolates (n = 38); assay: microbe, parasite or virus in culture; assay type: cell-based, Neisseria gonorrhoeae; settings: for MIC50 / MIC90: Neisseria gonorrhoeae
Summary of the method: as §3

[23] = system: S. aureus ATCC 29213; assay: MIC, broth microdilution; assay type: cell-based, Staphylococcus aureus; settings: Staphylococcus aureus, ATCC29213, S. aureus ATCC 29213, ciprofloxacin-susceptible
Procedure: as §2

[24] = average of two replicate experiments, read-out: IC50 E. coli Topoisomerase IV decatenation (average)
[25] = replicate Assay 1, read-out: IC50 E. coli Topoisomerase IV decatenation, Assay 1
[26] = replicate Assay 2, read-out: IC50 E. coli Topoisomerase IV decatenation, Assay 2
[27] = average of two replicate experiments, read-out: IC50 S. aureus Gyrase Supercoiling (average)
[28] = replicate Assay 1, read-out: IC50 S.aureus gyrase Supercoiling, Assay 1
[29] = replicate Assay 2, read-out: IC50 S.aureus gyrase Supercoiling, Assay 2
[30] = average of two replicate experiments, read-out: IC50 Human Topoisomerase II decatenation (average)
[31] = replicate Assay 1, read-out: IC50 Human Topoisomerase II (TopoII) decatenation, Assay 1
[32] = replicate Assay 2, read-out: IC50 Human Topoisomerase II (TopoII) decatenation, Assay 2
[33] = average of two replicate experiments, read-out: IC50 E. coli Gyrase Supercoiling (average)
[34] = replicate Assay 1, read-out: IC50 E. coli gyrase Supercoiling, Assay 1
[35] = replicate Assay 2, read-out: IC50 E. coli gyrase Supercoiling, Assay 2
[36] = replicate Assay 1, read-out: IC50 S. aureus Topoisomerase IV decatenation, Assay 1
[37] = replicate Assay 2, read-out: IC50 S. aureus Topoisomerase IV decatenation, Assay 2

T4 sequence (P0AES4 whole entry): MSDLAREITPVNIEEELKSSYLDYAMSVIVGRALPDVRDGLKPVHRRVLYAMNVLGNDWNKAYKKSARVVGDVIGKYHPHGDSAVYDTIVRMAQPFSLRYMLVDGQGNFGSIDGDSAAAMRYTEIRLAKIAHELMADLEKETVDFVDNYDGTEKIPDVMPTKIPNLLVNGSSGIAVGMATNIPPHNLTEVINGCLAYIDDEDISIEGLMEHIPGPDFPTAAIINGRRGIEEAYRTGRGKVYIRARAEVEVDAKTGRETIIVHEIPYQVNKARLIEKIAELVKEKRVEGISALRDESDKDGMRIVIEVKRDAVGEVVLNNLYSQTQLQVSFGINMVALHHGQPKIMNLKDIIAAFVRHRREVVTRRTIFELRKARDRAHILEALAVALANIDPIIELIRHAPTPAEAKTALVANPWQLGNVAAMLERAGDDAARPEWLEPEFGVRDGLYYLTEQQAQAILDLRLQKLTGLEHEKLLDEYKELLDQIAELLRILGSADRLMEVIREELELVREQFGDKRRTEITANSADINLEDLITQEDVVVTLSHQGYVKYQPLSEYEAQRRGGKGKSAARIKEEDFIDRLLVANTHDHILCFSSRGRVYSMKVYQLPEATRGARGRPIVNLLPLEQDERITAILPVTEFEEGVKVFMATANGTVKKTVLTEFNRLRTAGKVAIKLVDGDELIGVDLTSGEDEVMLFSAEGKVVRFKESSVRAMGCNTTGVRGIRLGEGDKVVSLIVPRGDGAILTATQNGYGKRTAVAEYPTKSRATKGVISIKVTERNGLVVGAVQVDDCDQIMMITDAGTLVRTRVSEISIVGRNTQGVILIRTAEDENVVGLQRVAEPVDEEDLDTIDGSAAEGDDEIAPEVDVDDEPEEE
T1 sequence (P20083 whole entry): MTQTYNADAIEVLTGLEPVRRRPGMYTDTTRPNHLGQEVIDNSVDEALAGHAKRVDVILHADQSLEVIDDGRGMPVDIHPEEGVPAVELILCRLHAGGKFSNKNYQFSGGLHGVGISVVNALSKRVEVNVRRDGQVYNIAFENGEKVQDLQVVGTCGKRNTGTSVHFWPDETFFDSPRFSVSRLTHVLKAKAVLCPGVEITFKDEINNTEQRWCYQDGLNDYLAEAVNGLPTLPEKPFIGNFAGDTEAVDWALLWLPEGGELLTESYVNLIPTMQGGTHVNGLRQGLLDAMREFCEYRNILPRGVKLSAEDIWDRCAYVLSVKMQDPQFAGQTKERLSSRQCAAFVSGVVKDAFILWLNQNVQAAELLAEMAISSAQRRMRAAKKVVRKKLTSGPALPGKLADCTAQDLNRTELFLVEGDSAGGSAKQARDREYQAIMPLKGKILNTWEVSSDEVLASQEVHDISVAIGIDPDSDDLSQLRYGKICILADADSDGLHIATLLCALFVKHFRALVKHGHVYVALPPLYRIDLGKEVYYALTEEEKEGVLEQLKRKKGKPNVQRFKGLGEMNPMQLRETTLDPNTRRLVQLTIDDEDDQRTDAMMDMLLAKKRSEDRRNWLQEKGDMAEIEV
T1 sequence (P0AFI2 whole entry): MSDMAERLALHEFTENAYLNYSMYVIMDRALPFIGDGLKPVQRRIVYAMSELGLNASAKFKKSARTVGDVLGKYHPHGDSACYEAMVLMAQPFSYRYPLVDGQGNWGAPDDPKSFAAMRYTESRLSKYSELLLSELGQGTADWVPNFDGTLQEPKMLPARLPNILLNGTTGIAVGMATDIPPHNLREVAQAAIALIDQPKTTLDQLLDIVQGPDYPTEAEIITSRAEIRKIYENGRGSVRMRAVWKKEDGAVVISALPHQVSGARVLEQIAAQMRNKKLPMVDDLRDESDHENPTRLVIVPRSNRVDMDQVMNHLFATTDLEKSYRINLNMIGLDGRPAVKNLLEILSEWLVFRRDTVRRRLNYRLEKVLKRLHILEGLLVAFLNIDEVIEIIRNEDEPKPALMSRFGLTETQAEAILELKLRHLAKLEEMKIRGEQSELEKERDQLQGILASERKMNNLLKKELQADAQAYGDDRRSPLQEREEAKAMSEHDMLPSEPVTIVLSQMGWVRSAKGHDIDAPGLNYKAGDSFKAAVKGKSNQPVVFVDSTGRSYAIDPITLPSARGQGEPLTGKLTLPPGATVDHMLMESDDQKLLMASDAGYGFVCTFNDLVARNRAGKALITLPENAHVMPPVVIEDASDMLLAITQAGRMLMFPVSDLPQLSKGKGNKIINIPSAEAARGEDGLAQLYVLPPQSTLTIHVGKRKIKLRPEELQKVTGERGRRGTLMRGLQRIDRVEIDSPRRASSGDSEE
T3 sequence (P11388 whole entry): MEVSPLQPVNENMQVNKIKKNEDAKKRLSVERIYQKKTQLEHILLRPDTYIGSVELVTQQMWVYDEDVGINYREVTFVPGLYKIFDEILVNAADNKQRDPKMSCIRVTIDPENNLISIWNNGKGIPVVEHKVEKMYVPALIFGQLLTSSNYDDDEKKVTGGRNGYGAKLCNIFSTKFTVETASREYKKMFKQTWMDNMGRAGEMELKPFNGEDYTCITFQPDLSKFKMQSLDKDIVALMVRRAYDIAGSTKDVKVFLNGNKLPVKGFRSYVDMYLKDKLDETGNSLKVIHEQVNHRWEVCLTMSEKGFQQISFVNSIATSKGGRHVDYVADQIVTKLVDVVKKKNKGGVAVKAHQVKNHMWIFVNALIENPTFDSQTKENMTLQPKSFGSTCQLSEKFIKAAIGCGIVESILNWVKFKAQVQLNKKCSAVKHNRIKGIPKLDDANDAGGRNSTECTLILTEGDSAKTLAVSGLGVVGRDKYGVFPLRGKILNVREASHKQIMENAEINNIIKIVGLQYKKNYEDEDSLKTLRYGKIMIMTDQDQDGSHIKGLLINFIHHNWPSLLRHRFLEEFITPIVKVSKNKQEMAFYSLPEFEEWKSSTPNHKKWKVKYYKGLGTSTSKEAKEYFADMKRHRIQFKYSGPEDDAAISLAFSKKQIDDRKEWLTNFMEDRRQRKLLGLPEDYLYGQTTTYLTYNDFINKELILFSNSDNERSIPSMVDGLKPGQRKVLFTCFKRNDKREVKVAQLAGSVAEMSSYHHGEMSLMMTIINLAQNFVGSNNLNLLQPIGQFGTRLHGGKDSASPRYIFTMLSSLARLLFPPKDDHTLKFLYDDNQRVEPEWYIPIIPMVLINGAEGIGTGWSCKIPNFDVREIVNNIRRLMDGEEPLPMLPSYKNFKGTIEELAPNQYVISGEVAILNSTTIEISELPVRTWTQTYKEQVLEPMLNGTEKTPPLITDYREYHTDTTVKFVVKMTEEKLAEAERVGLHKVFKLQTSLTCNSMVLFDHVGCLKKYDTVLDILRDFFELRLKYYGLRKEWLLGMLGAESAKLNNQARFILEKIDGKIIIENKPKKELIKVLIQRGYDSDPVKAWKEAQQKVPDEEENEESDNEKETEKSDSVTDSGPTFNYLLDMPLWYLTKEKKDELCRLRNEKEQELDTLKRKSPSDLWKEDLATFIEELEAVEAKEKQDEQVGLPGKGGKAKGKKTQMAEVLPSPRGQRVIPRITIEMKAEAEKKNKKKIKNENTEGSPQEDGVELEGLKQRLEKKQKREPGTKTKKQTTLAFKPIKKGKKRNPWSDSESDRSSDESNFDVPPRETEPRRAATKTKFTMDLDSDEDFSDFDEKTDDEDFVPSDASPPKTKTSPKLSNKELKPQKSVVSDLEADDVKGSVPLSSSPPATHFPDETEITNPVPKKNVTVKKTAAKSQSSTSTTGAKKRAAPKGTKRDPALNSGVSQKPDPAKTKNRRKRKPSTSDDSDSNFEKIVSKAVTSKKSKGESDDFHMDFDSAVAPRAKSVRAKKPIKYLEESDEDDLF

SMILES | IC50 [1, 24] [nM] | IC50 [1, 25] [nM] | IC50 [1, 26] [nM] | IC50 [2, 27] [nM] | IC50 [2, 28] [nM] | IC50 [2, 29] [nM] | MIC [3] [µg/mL] | MIC [4] [µg/mL] | MIC [5] [µg/mL] | MIC [6] [µg/mL] | MIC [7] [µg/mL] | MIC [8] [µg/mL] | MIC [9] [µg/mL] | MIC [10] [µg/mL] | IC50 [11, 30] | IC50 [11, 31] [nM] | IC50 [11, 32] [nM] | MIC [12] [µg/mL] | MIC [13] [µg/mL] | MIC [14] [µg/mL] | also measured
O=c1oc2ccc(F)cc2c2[nH]c(CN[C@H]3CC[C@H](n4c(=O)cnc5ncc(F)cc54)CC3)cc12 [Compound 4, 8-fluoro-2-({[trans-4-(7-fluoro-2-oxopyrido[2,3-b]pyrazin-1(2H)-yl)cyclohexyl]amino}methyl)[1]benzopyrano[4,3-b]pyrrol-4(1H)-one (formate salt)] | 300 | 500 | 200 | 1000 | 800 | 1200 | 2 | 0.5 | 0.5 | 0.25 | 0.12 | 0.5 | 0.25 | 4 | > 300000 nM | > 300000 | > 300000 | 0.06 | 0.12 | 0.06 | MIC [15]: ≤ 0.06 µg/mL; MIC [16]: 0.12 µg/mL; MIC [17]: ≤ 0.016 µg/mL; MIC50 [18]: 0.25 µg/mL; MIC90 [18]: 0.5 µg/mL; MIC [18]: 0.12 to 1 µg/mL; MIC50 [19]: 1 µg/mL; MIC90 [19]: 1 µg/mL; MIC [19]: 0.25 to 8 µg/mL; IC50 [20, 33]: 130 nM; IC50 [20, 34]: 150 nM; IC50 [20, 35]: 120 nM; IC50 [21]: 220 nM; IC50 [21, 36]: 260 nM; IC50 [21, 37]: 170 nM; MIC range [22]: 0.004 to 0.12 µg/mL; MIC50 [22]: 0.06 µg/mL; MIC90 [22]: 0.12 µg/mL; MIC [23]: 0.25 µg/mL
COc1cnc2ncc(=O)n([C@H]3CC[C@H](NCc4cc5c(=O)oc6ccc(F)cc6c5[nH]4)CC3)c2c1 [Compound 5, 8-Fluoro-2-({[trans-4-(7-methoxy-2-oxopyrido[2,3-b]pyrazin-1(2H)-yl)cyclohexyl]amino}methyl)[1]benzopyrano[4,3-b]pyrrol-4(1H)-one hydrochloride] | 140 | 120 | 160 | 170 | 160 | 170 | 4 | 0.25 | 0.5 | 0.5 | 0.12 | 1 | 0.5 | 8 | 9120 nM and 9000 nM | 5450 | 12800 | 0.125 | 0.25 | 0.12 | MIC [15]: ≤ 0.06 µg/mL; MIC [16]: 0.25 µg/mL; MIC [17]: ≤ 0.016 µg/mL; MIC50 [18]: 0.5 µg/mL; MIC90 [18]: 2 µg/mL; MIC [18]: 0.25 to 4 µg/mL; MIC50 [19]: 1 µg/mL; MIC90 [19]: 4 µg/mL; MIC [19]: 0.25 to 8 µg/mL; IC50 [20, 33]: 100 nM; IC50 [20, 34]: 90 nM; IC50 [20, 35]: 100 nM; IC50 ([21]; average of two replicate experiments, read-out: IC50 S. aureus Topoisomerase IV decatenation (average)): 70 nM; IC50 [21, 36]: 80 nM; IC50 [21, 37]: 60 nM; MIC range [22]: 0.016 to 0.25 µg/mL; MIC50 [22]: 0.12 µg/mL; MIC90 [22]: 0.25 µg/mL; MIC [23]: 0.5 µg/mL
